Source: the SangsterLogP compilation

Test: method code SF-HPLC, from DOI: 10.1002/jps.2600740210, PMID: 3989684
Settings: pH 7.7

SMILES	logD
NS(=O)(=O)c1nc2ccc(OCCO)cc2s1	0.38
NS(=O)(=O)c1nc2c(Cl)cc(Cl)cc2s1	2.3
CC(=O)Nc1ccc2nc(S(N)(=O)=O)sc2c1	0.68
NS(=O)(=O)c1nc2ccc(OCc3ccccc3)cc2s1	3.06
NS(=O)(=O)c1nc2ccccc2s1	1.19

Second part, the molecule after the results:

logD	SMILES
0.9	NS(=O)(=O)c1nc2ccc([N+](=O)[O-])cc2s1
1.91	CCOc1ccc2nc(S(N)(=O)=O)sc2c1
1.86	NS(=O)(=O)c1nc2ccc(Cl)cc2s1
0.92	NS(=O)(=O)c1nc2ccc(O)cc2s1
0.38	Nc1ccc2nc(S(N)(=O)=O)sc2c1
